# Where “and” joins values, the source holds several entries; their conditions need not be identical. Identical values can stand only once.
# How the values were obtained:
# 1F3 cell line = conditions: IF3 cells, 10 μM of SALT I (data not shown)
# 1F3 = conditions: 1F3, 10 μM of SALT I, 48 hours
# Protocol: (§1) For flow cytometry analysis, cells were fixed with 70% ethanol and wash with PBS. After pre-incubation with RNase A (0.1 mg per ml) at room temperature, cells were stained with PI (25 μg per ml). Fluorescence was measured by using FACScan flow cytometer (Becton Dickinson, Mountain View, Calif.). This experiment was performed at least three times.
# ARO [1] = conditions: 10 μM of SALT I
# Protocol: as §1
# FRO [2] = conditions: 10 μM of SALT I, 48 hours
# Protocol: as §1
# KTC-1 [3] = conditions: KTC-1, 10 μM of SALT I, 48 hours
# Protocol: as §1
# TPC-1 = conditions: TPC-1, 10 μM of SALT I, 48 hours
# Protocol: as §1
# [4] = test system: thyroid cancer cell lines
# Protocol: as §1
# ERK1/2 = test system: ERK1/2
# Protocol: Abl was immunoprecipitated from cell lysates using the indicated antibody. In vitro kinase assay was performed as described previously (Dorey et al., Oncogene, 2000, […]:8075-84). Radiolabelled GST-Crk was quantified using a PhosphorImager (Molecular Dynamics, Inc., Sunnyvale, Calif., USA). […] Stimulation was with 20% FCS for 8 minutes, cell lysates were collected and subjected to SDS-PAGE and Western blotting carried out using antibodies against ERK1/2 and the phosphorylated form of ERK1/2. […] A common response to extracellular signals such as growth factors is the activation of the mitogen-activated protein (MAP) kinase cascade.
# FRO cells = conditions: single daily administration of 50 mg/kg over 14 consecutive days, i.p.
# Protocol: Mouse xenograft model. All mice were maintained in the Nagasaki University (Nagasaki, Japan) animal facility and all animal experiments described in this study were conducted in accordance with the principles and procedures outlined in the Guide for the Care and Use of Laboratory Animals of the Nagasaki University School of Medicine. Five million FRO cells suspended in RPMI 1640 were injected s.c. into the flanks of 8-week-old female BalB/c nu/nu mice (Charles-River Japan, Tokyo, Japan). Tumor sizes were measured every other day with calipers and tumor volumes were calculated according to the formula: a^2×b×0.4 where a is the smallest diameter and b is the diameter perpendicular to a. […] Mice in the control group received injections of pure water. The body weight feeding behavior and motor activity of each animal were monitored as indicators of general health.
# Statistical analysis: Data are presented as mean ±SD unless otherwise specified. Student's t-test and Mann Whitney U test were used for comparison between two groups for parametric and nonparametric data, respectively. A p value <0.05 is considered statistically significant.
# [5] = test system: Refractory Progressive Thyroid Carcinoma; conditions: SALT I without any other therapy; rapid growth and invasion during the previous year
# Protocol: This clinical study is part of the Phase I/II clinical study which is exploratory in nature.
# When any mild adverse effect occurs, the dose is decreased to 200 mg once daily depending on the degree of the adverse effect. […] In principle, where the tumor size is reduced by half, the dose is increased up to 800 mg/day and continued for a maximum of six months. […] No concomitant use of an anticancer drug is permitted in principle. Drugs that relieve other conditions or symptoms may be used concomitantly with caution exercised for their adverse effects.
# FRO [6] = experiment: Cell growth assay, experiment 1 (cell count kit 48 h; growth curve 5 days); conditions: for cell number quantified with a cell count kit (Wako), mean: 48 hour-treatment, no SALT I: 1.677
# ARO [7] = experiment: as above; conditions: for cell number quantified with a cell count kit (Wako), mean: 48 hour-treatment, no SALT I: 0.959
# KTC-1 [8] = experiment: as above; conditions: for cell number quantified with a cell count kit (Wako), mean: 48 hour-treatment, no SALT I: 0.413
compound,measurement,setting,value
CS(=O)(=O)O.Cc1ccc(NC(=O)c2ccc(CN3CCN(C)CC3)cc2)cc1Nc1nccc(-c2cccnc2)n1 [SALT I],cell growth curve on a 5 day period,1F3 cell line,do not change the cell growth
same,effect on cell cycle (G2/M or S-phase changes),1F3,No such changes were observed
same,percentage of cells in S phase,1F3; DMSO 9.4,9.1%
same,percentage of cells in G2-M phase,1F3; DMSO 27.3,20.4%
same,percentage of cells in G1 phase,1F3; DMSO 63.3,70.5%
same,increase of the proportion of cells in G2/M-phase versus DMSO,ARO [1]; 48 hours (9.28% vs. 3.78%),increased more then two-fold
same,percentage of cells in G2-M phase,"ARO [1]; 48 hours, DMSO 3.8",9.28% and 9.3%
same,percentage of cells in S phase,"ARO [1]; 48 hours, DMSO 19.7",13.1%
same,percentage of cells in G1 phase,"ARO [1]; 48 hours, DMSO 76.6",77.6%
same,effect on cell cycle (arrest),FRO [2],S-phase arrest
same,percentage of cells in G2-M phase,FRO [2]; DMSO 24.95,15% and 14.98%
same,percentage of cells in G1 phase,FRO [2]; DMSO 32.16,30.91%
same,percentage of cells in S phase,FRO [2]; DMSO 43.26,54% and 54.11%
same,effect on cell cycle (G2/M or S-phase changes),KTC-1 [3],No such changes were observed
same,percentage of cells in S phase,KTC-1 [3]; DMSO 7.68,6.53%
same,percentage of cells in G2-M phase,KTC-1 [3]; DMSO 20.11,18.7%
same,percentage of cells in G1 phase,KTC-1 [3]; DMSO 72.2,74.77%
same,effect on cell cycle (G2/M or S-phase changes),TPC-1,No such changes were observed
same,percentage of cells in S phase,TPC-1; DMSO 9.7,9.3%
same,percentage of cells in G2-M phase,TPC-1; DMSO 22.6,13.1%
same,percentage of cells in G1 phase,TPC-1; DMSO 67.8,77.6%
same,DNA fragmentation in the DNA ladder assay,[4]; after 48 hours of treatment (data not shown),no DNA fragmentation was detected
same,apoptotic fraction (sub-G1),"[4]; after 48 hours of treatment, in any cell line",did not significantly increase
same,phosphorylation of ERK1/2 in response to serum stimulation,ERK1/2,had no effect on its phosphorylation
same,level of p-ERK1/2,"ERK1/2; ARO and FRO, 10 μM SALT I for two hours, 20% FCS for 8 minutes",did not affect
same,anti-tumor effect,FRO cells,strong anti-tumor effect
same,tumor growth in first patient (preliminary results),[5],stopped their growth for 3 months
same,"growth suppression, dose dependence","FRO [6]; FRO (undetectable p53), lower than 50 μM, 48 h",show growth suppression in SALT I dose dependent manner
same,cell growth curve on a 5 day period,"FRO [6]; FRO, 10 μM of SALT I, compared to control cells",time-dependent reduction of cell growth
same,cell death,"FRO [6]; FRO, 50 μM of SALT I, 48 h",died
same,"cell number quantified with a cell count kit (Wako), mean","FRO [6]; FRO, SALT I 1 μM",1.414
same,"cell number quantified with a cell count kit (Wako), mean","FRO [6]; FRO, SALT I 10 μM",1.192
same,"cell number quantified with a cell count kit (Wako), mean","FRO [6]; FRO, SALT I 50 μM",0.228
same,"growth suppression, dose dependence","ARO [7]; ARO (mutant p53), lower than 50 μM, 48 h",show growth suppression in SALT I dose dependent manner
same,cell growth curve on a 5 day period,"ARO [7]; ARO, 10 μM of SALT I, compared to control cells",time-dependent reduction of cell growth
same,cell death,"ARO [7]; ARO, 50 μM of SALT I, 48 h",died
same,"cell number quantified with a cell count kit (Wako), mean","ARO [7]; ARO, SALT I 1 μM",0.785
same,"cell number quantified with a cell count kit (Wako), mean","ARO [7]; ARO, SALT I 10 μM",0.539
same,"cell number quantified with a cell count kit (Wako), mean","ARO [7]; ARO, SALT I 50 μM",0.096
same,"growth suppression, dose dependence","KTC-1 [8]; KTC-1 (wild type p53), lower than 50 μM, 48 h",do not
same,cell growth curve on a 5 day period,"KTC-1 [8]; KTC-1, 10 μM of SALT I (data not shown)",do not change the cell growth
same,cell death,"KTC-1 [8]; KTC-1, 50 μM of SALT I, 48 h",died
same,"cell number quantified with a cell count kit (Wako), mean","KTC-1 [8]; KTC-1, SALT I 1 μM",0.403
same,"cell number quantified with a cell count kit (Wako), mean","KTC-1 [8]; KTC-1, SALT I 10 μM",0.379
same,"cell number quantified with a cell count kit (Wako), mean","KTC-1 [8]; KTC-1, SALT I 50 μM",0.064
